Experimental data published in article PMC11466185, “Mechanisms and efficacy of small molecule latency-promoting agents to inhibit HIV reactivation ex vivo” (JCI Insight, 2024).
Values joined by “and” are separate entries in the source; they are usually repeats but may differ in a detail not shown here. Identical values can stand only once. Like-named read-outs stand apart in the source and are kept apart here.

Experiments:
PBMCs = test: Cell viability by trypan blue staining after 24 hours; format: cell-based, human
Experimental: (§1) Figure 1 Screening of candidate LPAs by measuring the change in multiply spliced HIV transcripts after activation. Each drug was tested in PBMCs from 2 ART-suppressed study participants (denoted in the legend by varying symbol shapes). PBMCs were aliquoted into wells at 6 × 10^6 cells/well. After activation, the cells were cultured with antiretrovirals in the presence of individual drugs in DMSO or DMSO alone as control. All conditions were tested in the presence of CD3/28 T cell–activating beads, except for the unactivated DMSO condition. (A) After 24 hours, the viability was measured by trypan blue staining and then normalized to the levels of the activated DMSO (% of activated DMSO). Bars indicate medians. (B) Total cellular RNA was extracted, and the levels of multiply spliced HIV transcripts (TatRev) were measured by RT-ddPCR, normalized to 1 μg of total cellular RNA, and expressed as a percentage of the activated DMSO control (% of activated DMSO). RT-dd, reverse transcription digital droplet; vRNA, viral RNA; HAT, histone acetyltransferase.
For quantification of cell-associated HIV transcripts, PBMCs were harvested either after 24 hours or after 6 days. The cell viabilities were measured by trypan blue staining; then the cells were pelleted by centrifuging at 300g for 6 minutes and stored at –80°C. For quantification of virion-associated HIV RNA, cell culture supernatant was collected from 6 × 10^6 PBMCs that were treated and activated for 6 days as described above. Residual cells and cellular debris were subsequently removed from the supernatant by differential centrifugation (300g for 6 minutes, then 20,000g for 10 minutes), and the supernatant was stored at –80°C.

[1] = system: HIV transcripts (TAR, LLTR, Pol, PolyA, TatRev); test: Latency reversal assay: cell-associated HIV transcripts (RT-ddPCR) 24 hours after anti-CD3/CD28 activation of PBMCs from ART-suppressed PWH; format: cell-based; design: Elongated (LLTR) HIV transcripts, median relative to activated DMSO, initial screening / Midtranscribed (Pol) HIV transcripts, median relative to activated DMSO, initial screening / Multiply spliced (TatRev) HIV transcripts, median relative to activated DMSO, initial screening: concentration or dose not given beside the values; details: for mrna remaining at 0.1 µM: 100nM; for Completed (PolyA) HIV transcripts, median relative to activated DMSO, initial screening / Effect on HIV transcripts in the initial drug screen (in words) / Multiply spliced (TatRev) HIV transcripts, median relative to activated DMSO, initial screening: 2 participants, initial screening; for Completed (PolyA) HIV transcripts, median relative to activated DMSO, initial screening / Multiply spliced (TatRev) HIV transcripts, median relative to activated DMSO, initial screening / Multiply spliced HIV transcripts (TatRev) (Fig 1B): 24 hours; for Completed (PolyA) HIV transcripts, median relative to activated DMSO, initial screening / Multiply spliced (TatRev) HIV transcripts, median relative to activated DMSO, initial screening: Supplemental Figure 2; for Effect on HIV transcripts in the initial drug screen (in words): 24 hours after activation; for Multiply spliced (TatRev) HIV transcripts, median relative to activated DMSO, initial screening: Figure 1B
Experimental: We selected 26 small molecules targeting pathways implicated in HIV transcription or the blocks to HIV transcription underlying latency (Supplemental Table 1). […] Initial screening of all drugs was performed in freshly isolated PBMCs from 2 ART-suppressed individuals (Figure 1 and Supplemental Figure 2). PBMCs were cultured in the presence of individual drugs in DMSO or DMSO alone as a control, subsequently activated (anti-CD3/CD28), and harvested after 24 hours. […] The progression through different blocks to HIV transcription was quantified by measuring the levels of initiated (TAR), 5′ elongated (LLTR), midtranscribed/unspliced (Pol), completed (PolyA), and multiply spliced (TatRev) HIV transcripts. The levels of those HIV transcripts were normalized to 1 μg of total cellular RNA (to normalize for the effect of the drug on global cellular transcription) and expressed as a percentage of the activated DMSO control.
as §1
The ability of our candidate LPAs to inhibit HIV transcriptional progression after activation was examined in PBMCs from a minimum of 7 PWH per drug tested (Figure 3). PBMCs were cultured in the presence of individual drugs in DMSO or in DMSO alone as a control, subsequently activated (anti-CD3/CD28), and harvested after 24 hours.
Each drug was tested in PBMCs from 7 ART-suppressed study participants. The PBMCs were aliquoted into wells at 6 × 10^6 cells/well. After activation, the cells were cultured with antiretrovirals in the presence of individual drugs in DMSO or DMSO alone as control. All conditions were tested in the presence of CD3/28 T cell–activating beads, except for the unactivated DMSO condition. After 24 hours, total RNA was extracted, and the progression through different stages of HIV transcription was quantified by measuring the levels of initiated (TAR), 5′ elongated (LLTR), midtranscribed/unspliced (Pol), completed (PolyA), and multiply spliced (TatRev) HIV transcripts. (A) The levels of all HIV transcripts were normalized to 1 μg of total cellular RNA and expressed as a percentage of the activated DMSO control (% of activated DMSO). Medians are shown as well as the individual values per study participant in different colors. (B–D) The effect of each drug on HIV transcriptional progression after activation was analyzed by the ratio of one HIV transcript to another. Ratios are independent of HIV infection frequency or normalization to cell numbers. Shown are the proportion of (B) all HIV transcripts that were elongated (LLTR/TAR), (C) elongated HIV transcripts that were completed spliced (PolyA/LLTR), and (D) completed transcripts that were multiply spliced (TatRev/PolyA).

[2] = 10μM, 24 h after αCD3/28 activation, each column one participant

## Oc1ccc(/C=C/c2cc(O)cc(O)c2)cc1 [resveratrol]
PBMCs; study participant 150a
  Viability (Fig 1A): 102.48 % of activated DMSO
PBMCs; study participant 152
  Viability (Fig 1A): 91.76 % of activated DMSO

## CN1CCN(c2nc(C3=C(c4c[nH]c5ccccc45)C(=O)NC3=O)c3ccccc3n2)CC1 [sotrastaurin]
[1]; Human immunodeficiency virus 1, PBMC, 24 h, 24 h after αCD3/28 activation, each column one participant, read-out: LLTR HIV transcripts (DMSO+αCD3/28 = 100)
  mrna remaining at 0.1 µM: 99.4%
[1]; Human immunodeficiency virus 1, PBMC, 24 h, 24 h after αCD3/28 activation, each column one participant, read-out: Pol HIV transcripts (DMSO+αCD3/28 = 100)
  mrna remaining at 0.1 µM: 51.5%
[1]; Human immunodeficiency virus 1, PBMC, 24 h, 24 h after αCD3/28 activation, each column one participant, read-out: PolyA HIV transcripts (DMSO+αCD3/28 = 100)
  mrna remaining at 0.1 µM: 39.3%
[1]
  Completed (PolyA) HIV transcripts, median relative to activated DMSO, initial screening: 41%
PBMCs; study participant 150a
  Viability (Fig 1A): 103.88 % of activated DMSO
PBMCs; study participant 152
  Viability (Fig 1A): 98.33 % of activated DMSO

## Nc1nc2nn[nH]c2c(=O)[nH]1 [8-azaguanine]
[1]
  Effect on HIV transcripts in the initial drug screen (in words): did not observe decreases
  Multiply spliced (TatRev) HIV transcripts, median relative to activated DMSO, initial screening: increase in multiply spliced transcripts
PBMCs; study participant 150a
  Viability (Fig 1A): 106.88 % of activated DMSO
PBMCs; study participant 152
  Viability (Fig 1A): 98.65 % of activated DMSO

## CC(=O)Oc1ccccc1C(=O)O [aspirin]
[1]
  Effect on HIV transcripts in the initial drug screen (in words): did not observe much reduction
PBMCs; study participant 150a
  Viability (Fig 1A): 99.56 % of activated DMSO
PBMCs; study participant 152
  Viability (Fig 1A): 95.5 % of activated DMSO

## CCCCCCCCCCCCCCC=C(C(=O)OCC)C(=O)OCC [SPV-106]
[1]; [2]
  LLTR HIV transcripts (DMSO+αCD3/28 = 100): 123.81 and 93.28
  Pol HIV transcripts (DMSO+αCD3/28 = 100): 71.05 and 12.29
  PolyA HIV transcripts (DMSO+αCD3/28 = 100): 64.82 and 38.96
  TatRev HIV transcripts (DMSO+αCD3/28 = 100): 60.34 and 263.16
[1]
  Effect on HIV transcripts in the initial drug screen (in words): did not observe any reduction
[1]; study participant 150a
  Multiply spliced HIV transcripts (TatRev) (Fig 1B): 60.34 % of activated DMSO
[1]; study participant 152
  Multiply spliced HIV transcripts (TatRev) (Fig 1B): 263.16 % of activated DMSO
PBMCs; study participant 150a
  Viability (Fig 1A): 103.1 % of activated DMSO
PBMCs; study participant 152
  Viability (Fig 1A): 97.61 % of activated DMSO

## C[C@H]1O[C@@H](O[C@H]2[C@@H](O)C[C@H](O[C@H]3[C@@H](O)C[C@H](O[C@H]4CC[C@@]5(C)[C@H](CC[C@@H]6[C@@H]5C[C@@H](O)[C@]5(C)[C@@H](C7=CC(=O)OC7)CC[C@]65O)C4)O[C@@H]3C)O[C@@H]2C)C[C@H](O)[C@@H]1O [digoxin]
[1]; Human immunodeficiency virus 1, PBMC, 24 h, 2.5nM, 24 h after αCD3/28 activation, each column one participant, read-out: PolyA HIV transcripts (DMSO+αCD3/28 = 100)
  mrna remaining at 0.0025 µM: 87%
[1]
  Effect on HIV transcripts in the initial drug screen (in words): did not observe decreases
PBMCs; study participant 150a
  Viability (Fig 1A): 98.44 % of activated DMSO
PBMCs; study participant 152
  Viability (Fig 1A): 105.27 % of activated DMSO

## Nc1ccc(O)c(C(=O)O)c1 [mesalamine]
[1]
  Effect on HIV transcripts in the initial drug screen (in words): did not observe any reduction
PBMCs; study participant 150a
  Viability (Fig 1A): 102.78 % of activated DMSO
PBMCs; study participant 152
  Viability (Fig 1A): 98.77 % of activated DMSO

## CC(=O)S[C@@H]1CC2=CC(=O)CC[C@]2(C)[C@H]2CC[C@@]3(C)[C@@H](CC[C@@]34CCC(=O)O4)[C@H]12 [spironolactone]
[1]
  Effect on HIV transcripts in the initial drug screen (in words): little reduction
PBMCs; study participant 150a
  Viability (Fig 1A): 102.53 % of activated DMSO
PBMCs; study participant 152
  Viability (Fig 1A): 102.65 % of activated DMSO

## CN[C@@H]1C[C@H]2O[C@@](C)([C@@H]1OC)n1c3ccccc3c3c4c(c5c6ccccc6n2c5c31)C(=O)NC4 [staurosporine]
[1]
  Completed (PolyA) HIV transcripts, median relative to activated DMSO, initial screening: 41%
PBMCs; study participant 150a
  Viability (Fig 1A): 109.29 % of activated DMSO
PBMCs; study participant 152
  Viability (Fig 1A): 100.37 % of activated DMSO

## COc1cc(F)ccc1-c1ncnc(Nc2cccc(C[S@](C)(=N)=O)c2)n1 [atuveciclib]
[1]
  Multiply spliced (TatRev) HIV transcripts, median relative to activated DMSO, initial screening: 46%
PBMCs; study participant 150a
  Viability (Fig 1A): 108.3 % of activated DMSO
PBMCs; study participant 152
  Viability (Fig 1A): 95.7 % of activated DMSO

## Nc1ncnc2c1ncn2[C@@H]1O[C@H](CO)C[C@H]1O [cordycepin]
[1]
  Effect on HIV transcripts in the initial drug screen (in words): did not observe any reduction
PBMCs; study participant 150a
  Viability (Fig 1A): 101.9 % of activated DMSO
PBMCs; study participant 152
  Viability (Fig 1A): 92.02 % of activated DMSO

## Cn1cc(C2=C(c3cn(C4CCN(Cc5ccccn5)CC4)c4ccccc34)C(=O)NC2=O)c2ccccc21 [enzastaurin]
PBMCs; study participant 150a
  Viability (Fig 1A): 100.98 % of activated DMSO
PBMCs; study participant 152
  Viability (Fig 1A): 98.98 % of activated DMSO
